The values below come from US11026937B2, “Heteroaryl inhibitors of PAD4” (PADLOCK THERAPEUTICS, INC., priority 2016, dated 2021).

This assay has as its target hPAD4 enzyme (Homo sapiens (Human), UniProt Q9UM07). As to the kind of experiment: PAD4 assay (hPAD4-RFMS, RapidFire mass spectrometry). It is filed as biochemical. The settings on record: 100 nM hPAD4, 50 μM substrate peptide, 1 mM CaCl2, 65 mins at 37° C. Here is the method:
Compounds of the present invention were assayed as inhibitors of PAD4 using the assay protocol described below.
Compounds were solubilized in 100% DMSO to achieve 100 mM final compound concentration. Compound stock solutions were stored at RT. A series of dilutions were prepared in DMSO and mixed 8 times with 20 μL mixing volume. Final assay conditions were as follows:
Assay buffer (as aforementioned): 100 mM Tris-HCl (pH 7.6), 2 mM DTT, 1 mM CaCl2
Total incubation time: 65 mins at 37° C.
Stop solution: 40 μl 5% TCA in ACN
0.25 μL of compound solution was added to 10 μL of 200 nM PAD4 in assay buffer (100 mM Tris-HCl pH 7.6, 2 mM DTT). After 5 mins, 10 μL of 100 μM of substrate in buffer (100 mM Tris-HCl pH 7.6, 2 mM DTT, 2 mM CaCl2) was added and the reaction incubated for 60 mins at 37° C. The enzymatic reaction was quenched by addition of 40 μl of 5% TCA in ACN (1.7% TCA final concentration) stop solution.
The compound numbers correspond to the compound numbers in Tables 1 and 2. […] The term pIC50=−log(IC50). […] “NA” stands for “not assayed.”

The mark [1] stands for this setting: read-out: hPAD4-RFMS: IC50 (μM) (Average).
Setting [2] is: read-out: hPAD4-RFMS: pIC50 (Average) (converted).

Where two headings read alike, the source gives them in different places.

hPAD4 enzyme, sequence (Q9UM07 whole entry): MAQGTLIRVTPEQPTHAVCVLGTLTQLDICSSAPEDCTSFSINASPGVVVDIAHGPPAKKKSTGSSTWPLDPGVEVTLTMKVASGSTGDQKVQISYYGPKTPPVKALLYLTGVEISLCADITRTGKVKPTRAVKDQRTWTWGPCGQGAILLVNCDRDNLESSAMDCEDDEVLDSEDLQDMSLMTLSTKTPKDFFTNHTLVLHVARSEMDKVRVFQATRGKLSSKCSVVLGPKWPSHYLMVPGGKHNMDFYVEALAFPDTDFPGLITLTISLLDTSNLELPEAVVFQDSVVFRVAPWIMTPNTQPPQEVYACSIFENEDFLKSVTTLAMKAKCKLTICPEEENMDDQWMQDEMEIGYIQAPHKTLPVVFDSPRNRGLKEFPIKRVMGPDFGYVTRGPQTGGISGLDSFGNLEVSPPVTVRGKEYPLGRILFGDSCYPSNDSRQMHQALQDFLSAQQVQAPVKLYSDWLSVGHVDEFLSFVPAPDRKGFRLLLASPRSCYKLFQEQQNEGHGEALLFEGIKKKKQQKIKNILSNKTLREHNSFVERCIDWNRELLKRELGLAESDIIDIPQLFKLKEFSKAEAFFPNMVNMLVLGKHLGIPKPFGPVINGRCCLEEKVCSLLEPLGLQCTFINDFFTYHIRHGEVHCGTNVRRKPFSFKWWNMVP

As to `COc1ccc(/C=C/C(=O)c2c(-c3ccccc3)c3ccccc3[nH]c2=O)cc1` [Compound I-139], the IC50 under setting [1] fell in the range of 3 to 20 µM and the IC50 under setting [2] is less than 10 µM.
For `O=C(/C=C/c1cncnc1)c1c(-c2cccnc2)c2ccccc2[nH]c1=O` [Compound I-95] the same measures were greater than 100 µM and 100 to 100000 µM.
The matching figures for `O=C(/C=C/c1cncnc1)c1c(-c2ccccc2)c2cnccc2[nH]c1=O` [Compound I-90, 4-phenyl-3-[(2E)-3-(pyrimidin-5-yl)prop-2-enoyl]-1,2-dihydro-1,6-naphthyridin-2-one]: greater than 100 µM and 100 to 100000 µM.
The matching figures for `O=C(/C=C/c1ccccn1)c1c(-c2ccc(F)cc2)c2ccccc2[nH]c1=O` [Compound I-108]: greater than 100 µM and 100 to 100000 µM.
`COc1ccc(/C=C/C(=O)c2ccc[nH]c2=O)cc1` [Compound I-151]: the IC50 was greater than 100 µM under setting [1] and 100 to 100000 µM under setting [2].
The matching figures for `C#CCOCCOCCOc1ccc(/C=C/C(=O)c2c(-c3ccccc3)c3ccccc3[nH]c2=O)cc1` [Compound I-109, 4-phenyl-3-[(2E)-3-(4-{2-[2-(prop-2-yn-1-yloxy)ethoxy]ethoxy}phenyl)prop-2-enoyl]-1,2-dihydroquinolin-2-one]: greater than 100 µM and 100 to 100000 µM.
`O=C(/C=C/c1nc2ccccc2[nH]1)c1c(-c2ccccc2)c2ccccc2[nH]c1=O` [Compound I-103]: the “hPAD4-RFMS: pIC50 (Average)” value is “F (pIC50 of 4-5)”. Moreover, the IC50 under setting [1] lay within 20 to 100 µM.
For the compound `O=C(/C=C/c1cccnc1)c1c(-c2ccccn2)c2ccccc2[nH]c1=O` [Compound I-124], the IC50 is greater than 100 µM under setting [1] and 100 to 100000 µM under setting [2].
As to `Cn1c(/C=C/C(=O)c2c(-c3ccccc3)c3ccccc3n(C)c2=O)nc2ccccc21` [Compound I-72], the IC50 was greater than 100 µM under setting [1] and 10 to 100 µM under setting [2].
